# In ChEMBL document CHEMBL4364295, “Discovery of a First-in-Class Receptor Interacting Protein 2 (RIP2) Kinase Specific Clinical Candidate, 2-((4-(Benzo[d]thiazol-5-ylamino)-6-(tert-butylsulfonyl)quinazolin-7-yl)oxy)ethyl Dihydrogen Phosphate, for the Treatment of Inflammatory Diseases” (J Med Chem, 2019):
# Activity calls are given as the source filed them. No cut-off for these calls is given here.
# Key:
# Homo sapiens [1] = organism: Homo sapiens; assay: Inhibition of NOD2/TLR2 in human PBMC assessed as reduction in MDP/Pam2CSK4-induced IL6 production preincubated for 30 mins followed by MDP/Pam2CSK4 stimulation and measured after 6 hrs by immunoassay
# Homo sapiens [2] = organism: Homo sapiens; assay: Inhibition of NOD2/TLR4 in human PBMC assessed as reduction in MDP/LPS-induced IL6 production preincubated for 30 mins followed by […] and measured after 6 hrs by immunoassay
# Homo sapiens [3] = organism: Homo sapiens; assay: Inhibition of NOD2/TLR5 in human PBMC assessed as reduction in MDP/flagellin-induced IL6 production preincubated for 30 mins followed by […] and measured after 6 hrs by immunoassay
# Homo sapiens [4] = organism: Homo sapiens; assay: Inhibition of NOD2/IL1R in human PBMC assessed as reduction in MDP/Il1alpha-induced TNFalpha production preincubated for 30 mins followed by […] and measured after 6 hrs by immunoassay
# Homo sapiens [5] = organism: Homo sapiens; assay: Inhibition of NOD2/IL1R in human PBMC assessed as reduction in MDP/Il1alpha-induced IL6 production preincubated for 30 mins followed by […] and measured after 6 hrs by immunoassay
# Homo sapiens [6] = organism: Homo sapiens; assay: Inhibition of NOD2/TLR5 in human PBMC assessed as reduction in MDP/flagellin-induced TNFalpha production preincubated for 30 mins followed by […] and measured after 6 hrs by immunoassay
# Homo sapiens [7] = organism: Homo sapiens; assay: (§1) Inhibition of NOD2/TLR2 in human PBMC assessed as reduction in MDP/Pam2CSK4-induced TNFalpha production preincubated for 30 mins followed by MDP/Pam2CSK4 stimulation and measured after 6 hrs by immunoassay
# [8] = as §1
# Homo sapiens [9] = organism: Homo sapiens; assay: Inhibition of NOD2/TLR4 in human PBMC assessed as reduction in MDP/LPS-induced TNFalpha production preincubated for 30 mins followed by […] and measured after 6 hrs by immunoassay
# [10] = target: T1, Receptor-interacting serine/threonine-protein kinase 2 (Homo sapiens, UniProt O43353); assay: Inhibition of fluorescent-labelled ligand binding to human RIP2K preincubated for 10 mins followed by fluorescent-labelled ligand addition and measured after 10 mins by fluorescence polarization assay
# [11] = target: T1, Receptor-interacting serine/threonine-protein kinase 2; assay: Inhibition of RIPK2 in human whole blood assessed as reduction in MDP-induced TNFalpha production preincubated for 30 mins followed by MDP-stimulation and measured after 6 hrs by immunoassay; assay type: tissue-based
# [12] = target: T2, Voltage-gated inwardly rectifying potassium channel KCNH2 (Homo sapiens, UniProt Q12809); assay: Inhibition of human ERG (1159 residues) expressed in CHOK1 cells at -80 mV holding potential measured after 5 mins by QPatch electrophysiology method; assay type: cell-based
# [13] = Solubility of the compound in FaSSIF; assay type: physicochemical; details: simulated gi fluid
# [14] = Solubility of the compound in FeSSIF; assay type: physicochemical; details: simulated gi fluid
# Mus musculus [15] = assay: (§2) Antiinflammatory activity TNBS-induced mouse model of colitis assessed as decrease in colitis score at 7.5 to 145 mg/kg, po administered twice daily via gavage pretreated for 2 days followed by TNBS stimulation on day 3 and subsequent compound dosing from day 3 to 6 measured post-last dose by histological analysis; assay type: functional, organism-based
# Cricetinae = assay: Displacement of [125I]2-iodomelatonin from hamster MT3 receptor at 10 uM measured after 60 mins by scintillation counting method
# [16] = target: Vascular endothelial growth factor receptor 3 (Homo sapiens) (UniProt P35916); assay: Inhibition of human VEGFR3 at 1 uM using poly[Glu:Tyr] (4:1) as substrate in presence of [gamma-33P]ATP relative to control
# [17] = Solubility of the compound in FaSSIF measured after 4 hrs; assay type: physicochemical
# [18] = Drug uptake in po dosed Sprague-Dawley rat systemic circulation by LC/MS/MS analysis; assay type: ADME, organism-based; details: in vivo
# [19] = Prodrug conversion in Sprague-Dawley rat hepatic portal vein assessed as 2-((4-(Benzo[d]thiazol-5-ylamino)-6-(tert-butylsulfonyl)quinazolin-7-yl)oxy)ethanol formation; assay type: ADME; details: in vivo
# Cytochrome P450 3A4 [20] = target: T3, Cytochrome P450 3A4 (Homo sapiens, UniProt P08684); assay: Inhibition of CYP3A4 (unknown origin) at 126 nM; assay type: ADME; details: 0.126 µM
# [21] = target: T2, Voltage-gated inwardly rectifying potassium channel KCNH2; assay: Inhibition of human ERG (1159 residues) expressed in CHOK1 cells at 7.3 uM at -80 mV holding potential measured after 5 mins by QPatch electrophysiology method; assay type: cell-based
# CYP3A4 = CYP3A4 (Homo sapiens, UniProt P08684); assay: Ratio of IC50 for time dependent inhibition of CYP3A4 (unknown origin) in presence of NADPH to IC50 for time dependent inhibition of CYP3A4 (unknown origin) in absence of NADPH; details: read-out: Ratio IC50
# [22] = AUC in Sprague-Dawley rat assessed as 2-((4-(Benzo[d]thiazol-5-ylamino)-6-(tert-butylsulfonyl)quinazolin-7-yl)oxy)ethanol level at 2 mg/kg, po by LC/MS/MS analysis; assay type: ADME, organism-based; details: in vivo
# Cytochrome P450 3A4 [23] = target: T3, Cytochrome P450 3A4; assay: Time dependent inhibition of CYP3A4 (unknown origin); assay type: ADME
# [24] = AUC in Sprague-Dawley rat at 2 mg/kg, po by LC/MS/MS analysis; assay type: ADME, organism-based; details: in vivo
# Intestinal mucosa [25] = assay: Antiinflammatory activity in crohn's disease patient derived inflamed intestinal mucosa assessed as reduction in IL1beta production at 1 uM measured after overnight incubation by immunoassay; assay type: functional, tissue-based; details: Homo sapiens
# Intestinal mucosa [26] = assay: Antiinflammatory activity in ulcerative colitis patient derived inflamed intestinal mucosa assessed as reduction in IL6 production at 1 uM measured after overnight incubation by immunoassay; assay type: functional, tissue-based; details: Homo sapiens
# Mus musculus [27] = assay: as §2, with “1.5” for “7.5 to 145”; assay type: functional, organism-based
# Intestinal mucosa [28] = assay: Antiinflammatory activity in ulcerative colitis patient derived inflamed intestinal mucosa assessed as reduction in IL1beta production at 1 uM measured after overnight incubation by immunoassay; assay type: functional, tissue-based; details: Homo sapiens
# Intestinal mucosa [29] = assay: Antiinflammatory activity in crohn's disease patient derived inflamed intestinal mucosa assessed as reduction in IL6 production at 1 uM measured after overnight incubation by immunoassay; assay type: functional, tissue-based; details: Homo sapiens
# T3 sequence (P08684 whole entry): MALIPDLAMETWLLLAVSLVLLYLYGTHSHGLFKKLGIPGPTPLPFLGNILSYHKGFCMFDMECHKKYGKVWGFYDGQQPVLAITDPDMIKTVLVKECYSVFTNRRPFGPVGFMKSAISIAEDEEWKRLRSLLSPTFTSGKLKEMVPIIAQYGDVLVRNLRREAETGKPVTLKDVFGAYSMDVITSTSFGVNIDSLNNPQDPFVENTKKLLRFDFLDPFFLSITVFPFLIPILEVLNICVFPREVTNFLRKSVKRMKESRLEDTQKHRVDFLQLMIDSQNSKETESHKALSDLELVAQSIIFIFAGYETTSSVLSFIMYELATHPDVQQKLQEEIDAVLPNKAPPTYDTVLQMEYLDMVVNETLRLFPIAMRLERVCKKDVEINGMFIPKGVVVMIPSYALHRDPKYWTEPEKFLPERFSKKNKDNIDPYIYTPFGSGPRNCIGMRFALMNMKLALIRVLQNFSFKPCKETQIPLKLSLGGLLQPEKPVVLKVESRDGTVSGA
# T2 sequence (Q12809 whole entry): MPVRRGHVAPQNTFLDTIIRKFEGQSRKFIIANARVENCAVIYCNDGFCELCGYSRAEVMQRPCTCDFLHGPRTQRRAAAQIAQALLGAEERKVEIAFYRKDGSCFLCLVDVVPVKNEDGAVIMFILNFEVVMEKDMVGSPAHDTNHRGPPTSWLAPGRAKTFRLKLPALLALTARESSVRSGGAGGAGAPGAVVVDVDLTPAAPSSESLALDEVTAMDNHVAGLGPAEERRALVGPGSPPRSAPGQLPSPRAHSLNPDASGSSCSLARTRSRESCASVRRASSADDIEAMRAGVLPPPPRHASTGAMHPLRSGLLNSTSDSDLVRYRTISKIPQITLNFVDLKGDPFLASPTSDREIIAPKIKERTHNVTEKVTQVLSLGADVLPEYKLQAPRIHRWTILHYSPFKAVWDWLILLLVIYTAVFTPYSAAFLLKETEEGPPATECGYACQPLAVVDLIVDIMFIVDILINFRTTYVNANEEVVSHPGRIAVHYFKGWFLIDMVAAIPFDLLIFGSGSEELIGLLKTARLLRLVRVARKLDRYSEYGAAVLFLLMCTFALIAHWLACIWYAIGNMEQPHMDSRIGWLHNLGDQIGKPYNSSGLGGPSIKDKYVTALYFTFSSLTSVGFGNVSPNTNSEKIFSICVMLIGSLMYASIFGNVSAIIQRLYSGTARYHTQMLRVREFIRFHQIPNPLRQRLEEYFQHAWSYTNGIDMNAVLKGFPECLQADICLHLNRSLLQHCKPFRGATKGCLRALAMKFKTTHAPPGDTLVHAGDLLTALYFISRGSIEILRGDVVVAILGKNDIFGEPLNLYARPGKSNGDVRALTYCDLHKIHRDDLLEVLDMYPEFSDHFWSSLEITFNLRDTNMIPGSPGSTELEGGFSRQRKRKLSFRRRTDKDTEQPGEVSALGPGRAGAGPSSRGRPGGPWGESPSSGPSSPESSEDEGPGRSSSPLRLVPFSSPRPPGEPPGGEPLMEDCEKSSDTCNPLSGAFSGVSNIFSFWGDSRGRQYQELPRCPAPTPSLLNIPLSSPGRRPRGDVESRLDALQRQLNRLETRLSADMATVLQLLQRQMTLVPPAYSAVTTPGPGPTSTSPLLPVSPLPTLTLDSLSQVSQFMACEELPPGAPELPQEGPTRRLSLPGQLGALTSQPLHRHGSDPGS
# T1 sequence (O43353 whole entry): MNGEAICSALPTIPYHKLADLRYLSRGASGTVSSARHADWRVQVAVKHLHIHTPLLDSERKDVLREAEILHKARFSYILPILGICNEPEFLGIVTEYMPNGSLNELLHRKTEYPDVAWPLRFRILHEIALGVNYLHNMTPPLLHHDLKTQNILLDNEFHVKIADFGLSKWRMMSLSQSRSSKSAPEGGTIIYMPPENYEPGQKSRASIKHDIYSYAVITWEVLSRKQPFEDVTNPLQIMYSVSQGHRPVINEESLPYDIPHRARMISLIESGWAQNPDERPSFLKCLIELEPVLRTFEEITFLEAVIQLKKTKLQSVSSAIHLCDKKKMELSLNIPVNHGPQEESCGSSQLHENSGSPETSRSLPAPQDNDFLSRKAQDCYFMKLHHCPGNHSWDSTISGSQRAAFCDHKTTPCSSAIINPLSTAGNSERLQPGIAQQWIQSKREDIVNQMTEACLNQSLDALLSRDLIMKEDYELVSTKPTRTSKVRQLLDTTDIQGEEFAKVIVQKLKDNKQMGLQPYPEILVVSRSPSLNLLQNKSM
# Sequence of CYP3A4 (P08684 whole entry): as the sequence (P08684 whole entry) above
# Sequence of Vascular endothelial growth factor receptor 3 (Homo sapiens) (P35916 whole entry): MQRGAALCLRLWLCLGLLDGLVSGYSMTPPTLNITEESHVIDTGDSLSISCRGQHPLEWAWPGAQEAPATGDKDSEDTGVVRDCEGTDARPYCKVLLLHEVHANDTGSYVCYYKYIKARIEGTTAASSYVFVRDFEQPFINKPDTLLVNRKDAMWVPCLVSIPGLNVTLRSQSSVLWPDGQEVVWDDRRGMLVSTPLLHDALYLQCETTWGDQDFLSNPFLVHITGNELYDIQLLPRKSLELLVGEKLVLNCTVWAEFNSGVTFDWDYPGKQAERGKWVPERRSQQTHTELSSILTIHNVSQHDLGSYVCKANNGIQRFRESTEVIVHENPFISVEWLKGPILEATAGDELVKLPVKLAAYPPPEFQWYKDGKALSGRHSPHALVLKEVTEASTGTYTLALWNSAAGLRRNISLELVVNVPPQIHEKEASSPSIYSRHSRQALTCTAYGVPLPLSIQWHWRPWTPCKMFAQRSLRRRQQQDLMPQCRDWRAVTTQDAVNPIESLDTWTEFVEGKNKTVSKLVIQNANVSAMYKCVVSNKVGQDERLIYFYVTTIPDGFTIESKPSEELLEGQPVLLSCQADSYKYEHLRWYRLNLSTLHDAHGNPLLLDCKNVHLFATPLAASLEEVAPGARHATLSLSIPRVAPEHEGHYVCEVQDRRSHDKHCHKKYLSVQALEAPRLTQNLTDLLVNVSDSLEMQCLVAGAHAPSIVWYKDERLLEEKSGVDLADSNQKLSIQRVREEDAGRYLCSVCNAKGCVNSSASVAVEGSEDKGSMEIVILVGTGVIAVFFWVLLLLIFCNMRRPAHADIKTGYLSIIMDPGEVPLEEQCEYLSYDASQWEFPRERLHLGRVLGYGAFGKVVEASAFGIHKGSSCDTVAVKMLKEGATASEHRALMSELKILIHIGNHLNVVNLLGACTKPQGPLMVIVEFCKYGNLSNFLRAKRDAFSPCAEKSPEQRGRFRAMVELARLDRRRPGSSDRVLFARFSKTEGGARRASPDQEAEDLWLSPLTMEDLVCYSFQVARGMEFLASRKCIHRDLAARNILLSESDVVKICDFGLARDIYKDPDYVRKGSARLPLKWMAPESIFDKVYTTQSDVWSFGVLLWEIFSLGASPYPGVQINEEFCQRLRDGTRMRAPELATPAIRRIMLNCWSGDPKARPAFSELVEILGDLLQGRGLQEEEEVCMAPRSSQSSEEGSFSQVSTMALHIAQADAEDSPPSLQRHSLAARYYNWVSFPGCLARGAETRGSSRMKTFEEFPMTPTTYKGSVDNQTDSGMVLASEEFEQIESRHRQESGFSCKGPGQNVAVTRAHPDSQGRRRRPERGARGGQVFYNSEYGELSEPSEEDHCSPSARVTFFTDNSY
structure (smiles),measurement,setting,value
CC(C)S(=O)(=O)c1ccc2nccc(Nc3n[nH]c4ccc(F)cc34)c2c1,inhibition,Homo sapiens [1],Active
same,inhibition,Homo sapiens [2],Active
same,inhibition,Homo sapiens [3],Active
same,inhibition,Homo sapiens [4],Active
same,inhibition,Homo sapiens [5],Active
same,inhibition,Homo sapiens [6],Active
same,inhibition,Homo sapiens [7],Dose-dependent effect
same,IC50,[8],25 nM
same,inhibition,Homo sapiens [9],Active
COc1cc2ncnc(Nc3ccc4scnc4c3)c2cc1S(=O)(=O)C(C)(C)C,IC50,[10],4 nM
same,IC50,[11],374 nM
same,IC50,[12],> 30 µM
CC(C)(C)S(=O)(=O)c1cc2c(Nc3ccc4scnc4c3)ncnc2cc1OCCOP(=O)(O)O.Cl,solubility,[13],Soluble
same,solubility,[14],Soluble
CC(C)(C)S(=O)(=O)c1cc2c(Nc3ccc4scnc4c3)ncnc2cc1OCCOP(=O)(O)O,Activity,Mus musculus [15],Active
same,inhibition,Cricetinae,Active
same,inhibition,[16],> 90%
CC(C)(C)S(=O)(=O)c1cc2c(Nc3ccc4scnc4c3)ncnc2cc1OCCOS(=O)(=O)[O-].[Na+],solubility at 4 h,[17],2460 µg/mL
same,Drug uptake,[18],Not Active
CC(C)[C@H](N)C(=O)OCCOc1cc2ncnc(Nc3ccc4scnc4c3)c2cc1S(=O)(=O)C(C)(C)C,Drug metabolism,[19],Metabolite_Detected
same,inhibition (INH),Cytochrome P450 3A4 [20],Active
same,inhibition (INH),[21],Active
same,IC50 shift,CYP3A4,2.9
same,AUC,[22],0.73 µg·h/mL
same,Drug uptake,[18],Not Active
same,inhibition (INH),Cytochrome P450 3A4 [23],Active
CC(C)[C@H](N)C(=O)OCCOc1cc2ncnc(Nc3ccc4scnc4c3)c2cc1S(=O)(=O)C(C)(C)C.Cl.Cl,solubility at 4 h,[17],690 µg/mL
CC(C)(C)S(=O)(=O)c1cc2c(Nc3ccc4scnc4c3)ncnc2cc1OCCOP(=O)([O-])[O-].[Na+].[Na+],solubility,[13],Soluble
same,solubility,[14],Soluble
CN(C)C(=O)OCCOc1cc2ncnc(Nc3ccc4scnc4c3)c2cc1S(=O)(=O)C(C)(C)C,solubility at 4 h,[17],12 µg/mL
same,AUC,[24],10 ng·h/mL
same,AUC,[22],0.01 µg·h/mL
same,Drug uptake,[18],Not Active
C[C@]12C=CC(=O)C=C1CC[C@@H]1[C@@H]2[C@@H](O)C[C@@]2(C)[C@H]1CC[C@]2(O)C(=O)CO,Activity,Intestinal mucosa [25],Active
same,Activity,Intestinal mucosa [26],Active
same,Activity,Mus musculus [27],Active
same,Activity,Intestinal mucosa [28],Active
same,Activity,Intestinal mucosa [29],Active
